Source: US20240384268A1, “Oligonucleotides” (Hudson Institute of Medical Research, priority 2021, published 2024)
In the oligonucleotide strings, read from the 5' end, every base follows the letter of its sugar. An asterisk marks phosphorothioate; unmarked linkages are phosphodiester. Other units and linkages are bracketed, terminal groups are in braces. A string of capitals states the bases alone. d = 2'-deoxy (DNA); m = 2'-O-methyl

Biological target: T1, human TLR7 (Homo sapiens, UniProt Q9NYK1)
T1 construct: HA; host or cells: 293XL-hTLR7-HA (HEK293)
T1 sequence (Q9NYK1 27-1049): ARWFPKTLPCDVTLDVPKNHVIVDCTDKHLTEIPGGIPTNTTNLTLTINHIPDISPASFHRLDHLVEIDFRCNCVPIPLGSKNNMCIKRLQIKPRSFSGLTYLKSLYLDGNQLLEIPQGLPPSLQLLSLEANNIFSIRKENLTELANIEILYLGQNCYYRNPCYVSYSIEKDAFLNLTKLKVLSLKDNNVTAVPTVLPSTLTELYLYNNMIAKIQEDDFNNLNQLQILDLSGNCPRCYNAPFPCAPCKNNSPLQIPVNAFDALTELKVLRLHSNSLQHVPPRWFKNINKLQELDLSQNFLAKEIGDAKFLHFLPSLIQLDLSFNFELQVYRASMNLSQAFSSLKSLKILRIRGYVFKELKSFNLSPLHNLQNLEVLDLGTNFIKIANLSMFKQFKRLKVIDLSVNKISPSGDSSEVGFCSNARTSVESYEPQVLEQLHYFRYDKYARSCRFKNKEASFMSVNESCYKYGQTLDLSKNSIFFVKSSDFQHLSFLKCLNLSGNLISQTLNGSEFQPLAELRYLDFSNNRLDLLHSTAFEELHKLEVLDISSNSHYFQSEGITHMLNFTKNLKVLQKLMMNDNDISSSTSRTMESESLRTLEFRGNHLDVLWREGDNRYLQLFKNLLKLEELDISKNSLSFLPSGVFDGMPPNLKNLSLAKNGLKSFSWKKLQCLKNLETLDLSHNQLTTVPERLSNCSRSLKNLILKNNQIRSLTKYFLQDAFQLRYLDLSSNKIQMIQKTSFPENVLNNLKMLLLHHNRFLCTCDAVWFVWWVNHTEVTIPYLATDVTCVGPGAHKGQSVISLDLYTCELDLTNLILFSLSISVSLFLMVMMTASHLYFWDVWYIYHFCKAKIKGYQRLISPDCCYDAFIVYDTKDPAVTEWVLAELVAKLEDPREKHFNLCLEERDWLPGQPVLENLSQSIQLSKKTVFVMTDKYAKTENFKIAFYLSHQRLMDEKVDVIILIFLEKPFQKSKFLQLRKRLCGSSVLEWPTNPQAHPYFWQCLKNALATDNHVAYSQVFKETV
Assay: HEK-TLR7 NF-κB-luciferase reporter, R848 stimulation
Assay type: cell-based
Conditions: for TLR7 100 nM: MOE-modified ASO at 100 nM; for TLR7 100 nM / TLR7 500 nM: averaged NF-κB-Luciferase relative to R848 condition; for TLR7 500 nM: MOE-modified ASO at 500 nM; for TLR7-100 nM: averaged NF-κB-Luciferase relative to R848: HEK-TLR7, 100 nM ASO, percentage of R848 without ASO (Alharbi et al., 2020)

Substance	TLR7 100 nM	TLR7 500 nM	TLR7-100 nM: averaged NF-κB-Luciferase relative to R848
CGGAGGTCTTGGCTTCGTGG (antisense; 2'-MOE modified, pattern not given here) [MB21D1-525 MOE]	0.505	0.138	
mU*mG*mA*mU*mG*A*T*G*C*T*T*G*C*A*G*mG*mA*mG*mG*mC (mU*mG*mA*mU*mG*dA*dT*dG*dC*dT*dT*dG*dC*dA*dG*mG*mA*mG*mG*mC) [[LINC-PINT|283.1]			25.50%
mA*mU*mG*mA*mC*A*T*T*T*C*G*T*G*G*C*mU*mC*mC*mU*mA (mA*mU*mG*mA*mC*dA*dT*dT*dT*dC*dG*dT*dG*dG*dC*mU*mC*mC*mU*mA) [[LINC-PINT]524.1]			32.53%
GTCCAAGATCAGCAGTCTCA (antisense; 2'-MOE modified, pattern not given here) [CTNN2B-2341 MOE]	0.298	0.120	
mC*mC*mC*mU*mU*C*T*C*T*C*T*G*G*T*C*mC*mC*mA*mU*mC (mC*mC*mC*mU*mU*dC*dT*dC*dT*dC*dT*dG*dG*dT*dC*mC*mC*mA*mU*mC; antisense) [[LINC-PINT]114]			49.59%
GGTTTTGGCTGGGATCAAGT (antisense; 2'-MOE modified, pattern not given here) [CAMSAP1-4697 MOE]	0.346	0.191	
mU*mU*mU*mG*mA*A*A*T*T*C*A*G*A*A*G*mA*mU*mU*mU*mG (mU*mU*mU*mG*mA*dA*dA*dT*dT*dC*dA*dG*dA*dA*dG*mA*mU*mU*mU*mG) [[LINC PINT|2690]			35.07%
CGGCATCCACCACGTCGTCC (antisense; 2'-MOE modified, pattern not given here) [EGFR-3267 MOE]	0.485	0.202	
mG*mG*mU*mG*mG*C*C*A*C*A*G*G*C*A*A*mC*mG*mU*mC*mA (GGUGGCCACAGGCAACGUCA; antisense; sugars from the 5' end m5 d10 m5, all phosphorothioate, methylation of C not given here) [[CDKN2B-AS1]2196]			39.07%
mC*mC*mU*mU*mC*T*C*T*C*T*G*GT*C*C*mC*mA*mU*mC*mC (CCUUCTCTCTGGTCCCAUCC; antisense; chemistry not fully specified) [[LINC-PINT]113]			60.90%
mC*mU*mU*mC*mU*C*T*C*T*G*G*T*C*C*C*mA*mU*mC*mC*mC (mC*mU*mU*mC*mU*dC*dT*dC*dT*dG*dG*dT*dC*dC*dC*mA*mU*mC*mC*mC) [[LINC-PINT]112]			56.20%
mC*mA*mC*mC*mC*T*T*C*T*C*T*C*T*G*G*mU*mC*mC*mC*mA (CACCCTTCTCTCTGGUCCCA; antisense; sugars from the 5' end m5 d10 m5, all phosphorothioate, methylation of C not given here) [[LINC-PINT]116]			73.30%
mU*mU*mC*mU*mC*T*C*T*G*G*T*C*C*C*A*mU*mC*mC*mC*mU (mU*mU*mC*mU*mC*dT*dC*dT*dG*dG*dT*dC*dC*dC*dA*mU*mC*mC*mC*mU; antisense) [[LINC-PINT]111]			26.22%
mU*mC*mU*mC*mC*A*T*G*T*C*C*C*A*G*G*mC*mC*mU*mC*mC (mU*mC*mU*mC*mC*dA*dT*dG*dT*dC*dC*dC*dA*dG*dG*mC*mC*mU*mC*mC; antisense) [[CDKN2B-AS1]2230]			43.45%
mA*mA*mA*mG*mA*T*T*A*T*C*T*T*C*T*T*mU*mU*mA*mA*mU (mA*mA*mA*mG*mA*dT*dT*dA*dT*dC*dT*dT*dC*dT*dT*mU*mU*mA*mA*mU) [[CDKN2B-AS1]2132]			49.28%
mG*mU*mU*mC*mA*G*T*C*A*G*A*T*C*G*C*mU*mG*mG*mG*mA (mG*mU*mU*mC*mA*dG*dT*dC*dA*dG*dA*dT*dC*dG*dC*mU*mG*mG*mG*mA) [[LINC-PINT]412 KL]			17.46%
TTTGCACACTTCGTACCCAA (antisense; 2'-MOE modified, pattern not given here) [CAMSAP1-4916 MOE]	0.296	0.118	
mA*mA*mU*mU*mU*A*A*A*G*C*A*T*G*A*A*mU*mA*mU*mU*mA (mA*mA*mU*mU*mU*dA*dA*dA*dG*dC*dA*dT*dG*dA*dA*mU*mA*mU*mU*mA) [[CDKN2B-AS1]645]			46.75%
